Experimental data taken from the supplement of paper PMC10307832.

Tests used:
Experiment in all cases: relative viability (nuclei count vs DMSO), 5 days (fraction); higher = more cells survive
Zosuquidar + Trametinib = compound: O[C@@H](COc1cccc2ncccc12)CN1CCN([C@@H]2c3ccccc3[C@@H]3[C@H](c4ccccc42)C3(F)F)CC1 [Zosuquidar] + CC(=O)Nc1cccc(-n2c(=O)n(C3CC3)c(=O)c3c(Nc4ccc(I)cc4F)n(C)c(=O)c(C)c32)c1 [Trametinib] (partner 0.02 µM)
In short: (§1)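 Lung cancer cell lines in 1536-well plates got either a single drug or a fixed anchor-drug dose together with five library-drug doses (not always all listed) in √10 steps, by pin tool, on the day after seeding. Nuclei were counted after 5 days, and relative viability is the treated-to-vehicle ratio of nuclei counts. Values are medians of duplicate plates.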

Kobe2602 + Olaparib = compound: C1=CC(=CC=C1NC(=S)NNC2=C(C=C(C=C2[N+](=O)[O-])C(F)(F)F)[N+](=O)[O-])F [Kobe2602] + O=C(c1cc(Cc2n[nH]c(=O)c3ccccc23)ccc1F)N1CCN(C(=O)C2CC2)CC1 [Olaparib] (partner 8 µM)
In short: as §1

[1] = compound: COc1cc2nccc(Oc3ccc(NC(=O)C4(C(=O)Nc5ccc(F)cc5)CC4)cc3)c2cc1OC [Cabozantinib] + CS(=O)(=O)N1CCN(Cc2cc3nc(-c4cccc5[nH]ncc45)nc(N4CCOCC4)c3s2)CC1 [Pictilisib] (partner 1 µM)
In short: as §1

[2] = compound: COc1cc2nccc(Oc3ccc(NC(=O)C4(C(=O)Nc5ccc(F)cc5)CC4)cc3)c2cc1OC [Cabozantinib] + Nc1nc2[nH]cc(CCc3ccc(C(=O)N[C@@H](CCC(=O)O)C(=O)O)cc3)c2c(=O)[nH]1 [Pemetrexed] (partner 0.2 µM)
In short: as §1

Cell Line | relative viability (Zosuquidar + Trametinib; first compound 0.01 µM) | relative viability (Zosuquidar + Trametinib; first compound 0.03162 µM) | relative viability (Zosuquidar + Trametinib; first compound 0.1 µM) | relative viability (Zosuquidar + Trametinib; first compound 0.3162 µM) | relative viability (Zosuquidar + Trametinib; first compound 1 µM) | relative viability (Kobe2602 + Olaparib; first compound 0.2 µM) | relative viability (Kobe2602 + Olaparib; first compound 0.6325 µM) | relative viability (Kobe2602 + Olaparib; first compound 2 µM) | relative viability (Kobe2602 + Olaparib; first compound 6.325 µM) | relative viability (Kobe2602 + Olaparib; first compound 20 µM) | relative viability ([1]; first compound 0.02 µM) | relative viability ([1]; first compound 0.06325 µM) | relative viability ([1]; first compound 0.2 µM) | relative viability ([1]; first compound 0.6325 µM) | relative viability ([1]; first compound 2 µM) | relative viability ([2]; first compound 0.02 µM) | relative viability ([2]; first compound 0.06325 µM) | relative viability ([2]; first compound 0.2 µM) | relative viability ([2]; first compound 0.6325 µM) | relative viability ([2]; first compound 2 µM)
BEN | 1.21 | 1.16 | 0.885 | 0.999 | 0.927 | 1.08 | 1.02 | 1 | 1.07 | 0.973 | 0.58 | 0.632 | 0.576 | 0.601 | 0.458 | 0.65 | 0.914 | 0.781 | 0.851 | 0.698
EMC-BAC-2 | 0.92 | 0.988 | 0.842 | 1.02 | 0.883 | 0.511 | 0.531 | 0.46 | 0.559 | 0.532 | 0.505 | 0.566 | 0.516 | 0.554 | 0.542 | 0.47 | 0.456 | 0.529 | 0.456 | 0.449
NCI-H441 | 0.417 | 0.464 | 0.345 | 0.557 | 0.437 | 0.581 | 0.716 | 0.66 | 0.511 | 0.545 | 0.459 | 0.512 | 0.49 | 0.581 | 0.404 | 0.243 | 0.237 | 0.288 | 0.229 | 0.235
LU99A | 0.55 | 0.597 | 0.522 | 0.537 | 0.551 | 0.255 | 0.275 | 0.259 | 0.262 | 0.28 | 0.248 | 0.335 | 0.299 | 0.33 | 0.346 | 0.18 | 0.199 | 0.216 | 0.173 | 0.229
NCI-H2405 | 0.64 | 0.621 | 0.617 | 0.754 | 0.617 | 0.915 | 0.874 | 0.868 | 0.905 | 0.909 | – | 0.496 | 0.602 | 0.422 | 0.439 | 0.818 | 1.13 | 1.08 | 1.09 | 1.02
NCI-H2009 | 0.273 | 0.208 | 0.239 | 0.285 | 0.263 | 0.685 | 0.701 | 0.735 | 0.714 | 0.736 | 0.979 | 0.882 | 0.882 | 0.754 | 0.959 | 1.08 | 1.07 | 1.02 | 1 | 1.08
HCC-827 | 0.539 | 0.486 | 0.476 | 0.535 | 0.529 | 0.681 | 0.678 | 0.683 | 0.664 | 0.725 | 1.08 | 0.991 | – | 0.907 | 0.816 | 0.266 | 0.251 | – | 0.214 | 0.274
NCI-H838 | 0.561 | 0.465 | 0.487 | 0.617 | 0.509 | 0.733 | 0.779 | 0.759 | 0.725 | 0.764 | 0.499 | 0.574 | 0.529 | 0.394 | 0.417 | 0.276 | 0.263 | 0.234 | 0.288 | 0.244
